Assay results as given in patent US20250109135A1, “NOVEL ISOINDOLINONE DERIVATIVE COMPOUNDS AS CASPASE INHIBITORS” (INNOVO THERAPEUTICS INC., priority 2022, published 2025).
Read-outs that look alike come from different tables or passages of the source.

Tests used:
[1] = target: T1, recombinant human Caspase-1 (Homo sapiens, UniProt P29466); test: Caspase-1 inhibitory activity, fluorescent substrate Ac-YVAD-AFC; type: biochemical
T1 construct: purchased Enzo life science
T1 sequence (P29466 120-297 limits assumed): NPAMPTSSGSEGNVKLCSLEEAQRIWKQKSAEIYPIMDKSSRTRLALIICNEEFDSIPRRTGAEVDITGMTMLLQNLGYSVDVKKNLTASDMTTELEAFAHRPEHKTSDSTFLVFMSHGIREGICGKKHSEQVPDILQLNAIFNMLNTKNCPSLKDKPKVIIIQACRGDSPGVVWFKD
T1 sequence (P29466 317-404 limits assumed): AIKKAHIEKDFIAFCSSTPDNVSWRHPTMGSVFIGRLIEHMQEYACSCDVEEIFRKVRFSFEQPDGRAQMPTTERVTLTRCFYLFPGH
Procedure: To determine the Caspase-1 inhibitory activity of the compounds of the present invention prepared in Example, Caspase-1 activity was measured using a substrate with a fluorescent dye attached to it. […] The compound was dissolved in DMSO and stored at −20° C. Enzymatic reactions were carried out in a buffer comprising 50 mM HEPES (pH 8.0), 50 mM KCl, 200 mM NaCl, 10 mM DTT, 0.1% CHAPS (w/v). Enzyme inactivation was measured in the presence of different concentrations of the compound using the fluorescent substrate N-Acetyl-Tyr-Val-Ala-Asp-7-amido-4-trifluoromethylcoumarin (Ac-YVAD-AFC) (Sigma) at a concentration of 50 μM and 1 unit of recombinant human Caspase-1 (Enzo life science). A CLARIOstar Plus spectrometer (BMG Labtech) was used to measure the reaction rate as a function of time in the 400/505 nm (Ex/Em) wavelength band. […] If kobs/[I] is 20 or more, it is denoted as A, if it is 10 or more but less than 20, it is denoted as B, if it is 1 or more but less than 10, it is denoted as C, and if it is less than 1, it is denoted as D.
In the above equation, At means the enzyme reaction rate at time t (min), and Amax means the maximum reaction rate.

[2] = test system: Secreted IL-1β in THP-1 cells; test: Interleukin-1β inhibitory activity in human monocytic cells THP-1 (ELISA); type: cell-based; details: compound 100 nM, PMA-differentiated THP-1, LPS 10 μg/ml then 5 mM ATP, 24 h
Procedure: Caspase-1 is known as […] (ICE). Activated Caspase-1 is involved in the cleavage of pro-form IL-1β to produce the mature form, which is then secreted to induce inflammation. Therefore, the compounds identified in Experimental example 1 were tested to determine if their Caspase-1 inhibitory activity affected the production of […].
THP-1 (ATCC) cells were cultured in RPMI 1640 (Hyclone) growth medium comprising 10% Fetal bovine serum (FBS, Gibco) and antibiotics (100 U/ml Penicillin, 0.1 mg/ml Streptomycin, Cytiva) under 37° C., 5% CO2 conditions. Cultured THP-1 cells were seeded in growth medium to a concentration of 3×10^5 cells/well in 24-well plates (Celvest) and then treated with 1 μM Phorbol 12-myristate 13-acetate (PMA) (Sigma) for 24 hours to induce differentiation. Differentiated THP-1 were pre treated with 10 μg/ml Lipopolysaccharide (LPS, from E. coli 0111:B4 (InvivoGen)) in serum free RPMI 1640 medium for 24 hours to induce an inflammatory response. After removal of LPS, the compounds were pretreated for 1 h at a concentration of 100 nM using the same medium, followed by the addition of 5 mM ATP (InvivoGen) and incubation for 24 h in an incubator. The treated medium was collected and centrifuged, and IL-1β was quantified using an Enzyme linked immunoassay kit (ELISA kit, R&D system), and absorbance was measured at 450 nm using a CLARIOstar Plus spectrometer. Inhibitory activity was denoted as a if it was 50% or more, b if it was 30% or more but less than 50%, c if it was 10% or more but less than 30%, and d if it was less than 10%.

[3] = pH 8, 1 unit recombinant human Caspase-1, 50 μM Ac-YVAD-AFC, read-out: kobs/[I] Caspase-1
[4] = pH 8, read-out: kobs/[I] Caspase-1

SMILES | kinact/KI [1, 3] [M⁻¹ s⁻¹] | inhibition at 0.1 µM [2] [%] | kinact/KI [1, 4] [M⁻¹ s⁻¹]
CCC(C(=O)NC(CC(=O)O)C(=O)CF)N1Cc2ccc(-c3cccc4ccncc34)cc2C1=O (centres unmarked) [Compound 35, 5-fluoro-3-(2-(6-(isoquinolin-8-yl)-1-oxoisoindolin-2-yl)butanamido)-4-oxopentanoic acid] |  | < 10 | 0.0167 to 0.167
CC[C@@H](C(=O)N[C@@H](CC(=O)O)C(=O)COc1c(F)c(F)cc(F)c1F)N1Cc2ccc(N3CCCC3)cc2C1=O [Compound 53, (S)-4-oxo-3-((S)-2-(1-oxo-6-(pyrrolidin-1-yl)isoindolin-2-yl)butanamido)-5-(2,3,5,6-tetrafluorophenoxy)pentanoic acid] |  | < 10 | 0.0167 to 0.167
CC[C@@H](C(=O)NC(CC(=O)O)C(=O)CF)N1Cc2cc(-c3cccc4ccccc34)ccc2C1=O (stereo partly drawn) [Compound 61, 5-fluoro-3-((S)-2-(5-(naphthalen-1-yl)-1-oxoisoindolin-2-yl)butanamido)-4-oxopentanoic acid] |  | < 10 | < 0.0167
CC[C@@H](C(=O)NC(CC(=O)O)C(=O)CF)N1Cc2cc(-c3csc4ccccc34)ccc2C1=O (stereo partly drawn) [Compound 59, 3-((S)-2-(5-(benzo[b]thiophen-3-yl)-1-oxoisoindolin-2-yl)butanamido)-5-fluoro-4-oxopentanoic acid] |  | < 10 | < 0.0167
CC[C@@H](C(=O)NC(CC(=O)O)C(=O)CF)N1Cc2cc(N3CCn4cc(C(F)(F)F)nc4C3)ccc2C1=O (stereo partly drawn) [Compound 62, 5-fluoro-4-oxo-3-((S)-2-(1-oxo-5-(2-(trifluoromethyl)-5,6-dihydroimidazo[1,2-a]pyrazin-7(8H)-yl)isoindolin-2-yl)butanamido)pentanoic acid] |  |  | < 0.0167
CC[C@@H](C(=O)NC(CC(=O)O)C(=O)CF)N1Cc2cc(N3CCCC3)ccc2C1=O (stereo partly drawn) [Compound 64, 5-fluoro-4-oxo-3-((S)-2-(1-oxo-5-(pyrrolidin-1-yl)isoindolin-2-yl)butanamido)pentanoic acid] |  |  | < 0.0167
CCC(C(=O)NC(CC(=O)O)C(=O)CF)N1Cc2ccc(-c3cccc4cnccc34)cc2C1=O (centres unmarked) [Compound 36, 5-fluoro-3-(2-(6-(isoquinolin-5-yl)-1-oxoisoindolin-2-yl)butanamido)-4-oxopentanoic acid] |  | < 10 | 0.0167 to 0.167
C[C@@H](C(=O)NC(CC(=O)O)C(=O)CF)N1Cc2ccc(-c3ccc4[nH]c(=O)[nH]c4c3)cc2C1=O (some centres unmarked) [Compound 47, 5-fluoro-4-oxo-3-(2-(1-oxo-6-(2-oxo-2,3-dihydro-1H-benzo[d]imidazol-5-yl)isoindolin-2-yl)propanamido)pentanoic acid] |  |  | 0.0167 to 0.167
C[C@@H](C(=O)NC(CC(=O)O)C(=O)CF)N1Cc2ccc(N3CCCC3)cc2C1=O (some centres unmarked) [Compound 46, 5-fluoro-4-oxo-3-(2-(1-oxo-6-(pyrrolidin-1-yl)isoindolin-2-yl)propanamido)pentanoic acid] |  |  | < 0.0167
CC(C)[C@@H](C(=O)NC(CC(=O)O)C(=O)CF)N1Cc2ccc(N3CCCC3)cc2C1=O (stereo partly drawn) [Compound 43, 5-fluoro-3-((S)-3-methyl-2-(1-oxo-6-(pyrrolidin-1-yl)isoindolin-2-yl)butanamido)-4-oxopentanoic acid] |  | 10 to 30 | < 0.0167
CC[C@@H](C(=O)NC(CC(=O)O)C(=O)CF)N1Cc2cc(N3CCN(c4nsc5ccccc45)CC3)ccc2C1=O (stereo partly drawn) [Compound 63, 3-((S)-2-(5-(4-(benzo[d]isothiazol-3-yl)piperazin-1-yl)-1-oxoisoindolin-2-yl)butanamido)-5-fluoro-4-oxopentanoic acid] |  |  | < 0.0167
CC[C@@H](C(=O)NC(CC(=O)O)C(=O)CF)N1Cc2cc(-c3ccc4occc4c3)ccc2C1=O (stereo partly drawn) [Compound 60, 3-((S)-2-(5-(benzofuran-5-yl)-1-oxoisoindolin-2-yl)butanamido)-5-fluoro-4-oxopentanoic acid] |  | < 10 | < 0.0167

Further lines, with some results ahead:

kinact/KI [1, 3] [M⁻¹ s⁻¹] | SMILES | inhibition at 0.1 µM [2] [%] | kinact/KI [1, 4] [M⁻¹ s⁻¹]
0.0167 to 0.167 | CCC(C(=O)NC(CC(=O)O)C(=O)CF)N1Cc2ccc(-c3cccc4ncccc34)cc2C1=O (centres unmarked) [Compound 34, 5-fluoro-4-oxo-3-(2-(1-oxo-6-(quinolin-5-yl)isoindolin-2-yl)butanamido)pentanoic acid] | < 10 | 
0.0167 to 0.167 | CCC(C(=O)NC(CC(=O)O)C(=O)CF)N1Cc2ccc(-c3ccn(C)n3)cc2C1=O (centres unmarked) [Compound 25, 5-fluoro-3-(2-(6-(1-methyl-1H-pyrazol-3-yl)-1-oxoisoindolin-2-yl)butanamido)-4-oxopentanoic acid] | 10 to 30 | 
< 0.0167 | C[C@@H](C(=O)NC(CC(=O)O)C(=O)CF)N1Cc2ccc(-c3ccc4c(c3)OCCO4)cc2C1=O (some centres unmarked) [Compound 48, 3-(2-(6-(2,3-dihydrobenzo[b][1,4]dioxin-6-yl)-1-oxoisoindolin-2-yl)propanamido)-5-fluoro-4-oxopentanoic acid] |  | 
< 0.0167 | CCC(C(=O)NC(CC(=O)O)C(=O)CF)N1Cc2ccc(Nc3cccc4ccccc34)cc2C1=O (centres unmarked) [Compound 11, 5-fluoro-3-(2-(6-(naphthalen-1-ylamino)-1-oxoisoindolin-2-yl)butanamido)-4-oxopentanoic acid] | 30 to 50 | 
< 0.0167 | CCC(C(=O)NC(CC(=O)O)C(=O)CF)N1Cc2ccc(N3CCN(c4nsc5ccccc45)CC3)cc2C1=O (centres unmarked) [Compound 19, 3-(2-(6-(4-(benzo[d]isothiazol-3-yl)piperazin-1-yl)-1-oxoisoindolin-2-yl)butanamido)-5-fluoro-4-oxopentanoic acid] | < 10 | 
0.0167 to 0.167 | CCC(C(=O)NC(CC(=O)O)C(=O)CF)N1Cc2ccc(-c3cnn(C)c3)cc2C1=O (centres unmarked) [Compound 24, 5-fluoro-3-(2-(6-(1-methyl-1H-pyrazol-4-yl)-1-oxoisoindolin-2-yl)butanamido)-4-oxopentanoic acid] | 10 to 30 | 
0.0167 to 0.167 | CCC(C(=O)NC(CC(=O)O)C(=O)CF)N1Cc2ccc(-c3ccc(S(C)(=O)=O)cc3F)cc2C1=O (centres unmarked) [Compound 12, 5-fluoro-3-(2-(6-(2-fluoro-4-(methylsulfonyl)phenyl)-1-oxoisoindolin-2-yl)butanamido)-4-oxopentanoic acid] | 10 to 30 | 
0.167 to 0.333 | C[C@@H](C(=O)NC(CC(=O)O)C(=O)CF)N1Cc2ccc(-c3coc4ccccc34)cc2C1=O (some centres unmarked) [Compound 49, 3-(2-(6-(benzofuran-3-yl)-1-oxoisoindolin-2-yl)propanamido)-5-fluoro-4-oxopentanoic acid] |  | 
0.0167 to 0.167 | CCC(C(=O)NC(CC(=O)O)C(=O)CF)N1Cc2ccc(-c3ccsc3)cc2C1=O (centres unmarked) [Compound 28, 5-fluoro-4-oxo-3-(2-(1-oxo-6-(thiophen-3-yl)isoindolin-2-yl)butanamido)pentanoic acid] | 10 to 30 | 
0.0167 to 0.167 | CCC(C(=O)NC(CC(=O)O)C(=O)CF)N1Cc2ccc(-c3ccc(C(F)(F)F)cc3)cc2C1=O (centres unmarked) [Compound 14, 5-fluoro-4-oxo-3-(2-(1-oxo-6-(4-(trifluoromethyl)phenyl)isoindolin-2-yl)butanamido)pentanoic acid] | < 10 | 
0.0167 to 0.167 | CCC(C(=O)NC(CC(=O)O)C(=O)CF)N1Cc2ccc(-c3ccnc4ccccc34)cc2C1=O (centres unmarked) [Compound 31, 5-fluoro-4-oxo-3-(2-(1-oxo-6-(quinolin-4-yl)isoindolin-2-yl)butanamido)pentanoic acid] | < 10 | 
< 0.0167 | CCC(C(=O)NC(CC(=O)O)C(=O)CF)N1Cc2ccc(C3=CCOCC3)cc2C1=O (centres unmarked) [Compound 15, 3-(2-(6-(3,6-dihydro-2H-pyran-4-yl)-1-oxoisoindolin-2-yl)butanamido)-5-fluoro-4-oxopentanoic acid] | < 10 | 
